According to the Deep4Chem optical property database:
Values belong to the molecule of their own block, whether it stands above or below them.

Experiment: solvent given as SMILES

SMILES: OCC1O[C@@H](Cc2cc(O)cc(/C=C/c3ccc(O)c(O)c3)c2)[C@H](O)[C@@H](O)[C@@H]1O (some centres undefined)
- emission maximum (in C1CCOC1): 375 nm
- emission maximum (in C1COCCO1): 370 nm
- emission maximum (in CC#N): 387 nm
- emission maximum (in CC(C)=O): 376 nm
- emission maximum (in CCCCO): 385 nm
- emission maximum (in CCCO): 386 nm
- emission maximum (in CCO): 390 nm
- emission maximum (in CCOC(C)=O): 372 nm
- emission maximum (in CCOCC): 372 nm
- emission maximum (in CN(C)C=O): 378 nm
- emission maximum (in CO): 394 nm
- emission maximum (in CS(C)=O): 381 nm
- emission maximum (in Cc1ccccc1): 371 nm
- emission maximum (in ClC(Cl)Cl): 373 nm
- emission maximum (in O): 403 nm

SMILES: O=P(c1ccccc1)(c1ccccc1)n1c2ccccc2c2cc(-n3c4ccccc4c4cc(-n5c6ccccc6c6ccccc65)ccc43)ccc21
- emission maximum (in C1CCOC1): 373 nm
- emission maximum (in CC(C)=O): 374 nm
- emission maximum (in Cc1ccccc1): 373 nm
- emission maximum (in ClCCl): 381 nm

SMILES: CC1=[N+]2C(=C(c3ccccc3)c3c4c(c(C)n3[B-]2(F)F)CCc2ccccc2-4)C2=C1CCc1ccccc12
- emission maximum (in CC#N): 612 nm

SMILES: CCN(CC)c1ccc2c(-c3ccccc3C(=O)O)c3c([o+]c2c1)/C(=C/c1ccc(N(C)C)cc1)CCC3
- emission maximum (in ClCCl): 757 nm

SMILES: OC1(c2ccc(-c3cccs3)s2)CCCCC1
- emission maximum (in C1CCOC1): 458 nm
- emission maximum (in CC#N): 466 nm
- emission maximum (in CCCCCC): 465 nm
- emission maximum (in CCO): 465 nm
- emission maximum (in OCCOCCO): 447 nm
- emission maximum (in c1ccncc1): 475 nm

SMILES: CCCC1=Cc2nc1ccc1[nH]c(cc1CCC)c1nc(c(OC(C)=O)cc3[nH]c2cc3CCC)C(CCC)=C1
- emission maximum (in Cc1ccccc1): 650 nm

SMILES: CC1(C)C(/C=C/C2=C(c3ccc(C(=O)O)cc3)C(=C/C=C3/N(CCCCS(=O)(=O)[O-])c4ccccc4C3(C)C)/CC2)=[N+](CCCCS(=O)(=O)[O-])c2ccccc21
- emission maximum (in CO): 816 nm

SMILES: CC1(C)c2ccccc2-c2cc3c(cc21)N(c1ccc(-c2nc(-c4ccc(N5c6ccccc6C(c6ccccc6)(c6ccccc6)c6cc7c(cc65)C(C)(C)c5ccccc5-7)cc4)nc(-c4ccc(N5c6ccccc6C(c6ccccc6)(c6ccccc6)c6cc7c(cc65)C(C)(C)c5ccccc5-7)cc4)n2)cc1)c1ccccc1C3(c1ccccc1)c1ccccc1
- emission maximum (in Cc1ccccc1): 515 nm

SMILES: CCC1(CC)c2cc(-c3ccc(C(C)(C)C)cc3)ccc2-c2ccc(-c3ccc4c(c3)C(CC)(CC)c3cc(-c5ccc6c(c5)C(CC)(CC)c5cc(-c7ccc(C(C)(C)C)cc7)ccc5-6)ccc3-4)cc21
- emission maximum (in CO): 402.3 nm

SMILES: c1ccc2c(c1)-c1sc3ccccc3c1C21c2ccccc2-c2sc3ccccc3c21
- emission maximum (in ClCCl): 368 nm

SMILES: CCCCOc1ccc(-c2oc3c(-c4ccc(OCCCC)cc4)c4n(c3c2-c2ccc(OCCCC)cc2)[B-](F)(F)[N+]2=Cc3c(-c5ccc(OCCCC)cc5)c5oc(-c6ccc(OCCCC)cc6)c(-c6ccc(OCCCC)cc6)c5n3[B-](F)(F)[N+]2=C4)cc1
- emission maximum (in C1CCOC1): 663 nm
- emission maximum (in CN(C)C=O): 672 nm
- emission maximum (in CS(C)=O): 676 nm
- emission maximum (in Cc1ccccc1): 668 nm
- emission maximum (in ClC(Cl)Cl): 666 nm
- emission maximum (in ClCCl): 667 nm

SMILES: COc1ccc(C(=O)/C=C2\C(=O)Nc3ccccc32)cc1
- emission maximum (in C1COCCO1): 373 nm
- emission maximum (in CC#N): 372 nm
- emission maximum (in CC(C)(C)O): 381 nm
- emission maximum (in CC(C)O): 378 nm
- emission maximum (in CCCCO): 378 nm
- emission maximum (in CCOC(C)=O): 375 nm
- emission maximum (in CN(C)C=O): 375 nm
- emission maximum (in CO): 380 nm
- emission maximum (in ClCCl): 411 nm
- emission maximum (in O): 407 nm

SMILES: CC(C)[Si](C#Cc1c2ccccc2c(C#Cc2c3ccccc3c(C#Cc3c4ccccc4c(C#Cc4c5ccccc5c(C#C[Si](C(C)C)(C(C)C)C(C)C)c5ccccc45)c4ccccc34)c3ccccc23)c2ccccc12)(C(C)C)C(C)C
- emission maximum (in Cc1ccccc1): 609 nm

SMILES: CN(C)c1ccc(/C=C/c2ncccn2)cc1
- emission maximum (in ClCCl): 472 nm

SMILES: CCn1c2sccc2c2c3nsnc3c3c4ccsc4n(CC)c3c21
- emission maximum (in C1CCOC1): 521 nm
- emission maximum (in CCOC(C)=O): 521 nm
- emission maximum (in CN(C)C=O): 552 nm
- emission maximum (in Cc1ccccc1): 508 nm
- emission maximum (in ClCCl): 548 nm

SMILES: CN1/C(=C/C=C(/C=C/c2sc3ccccc3[n+]2C)c2ccc(C(F)(F)F)cc2)Sc2ccccc21
- emission maximum (in CCO): 678 nm
- emission maximum (in CO): 676 nm
- emission maximum (in CS(C)=O): 668 nm
- emission maximum (in O): 659 nm

SMILES: COc1cc(N(c2ccccc2)c2ccccc2)ccc1C=C(C#N)C#N
- emission maximum (in C1COCCO1): 548 nm
- emission maximum (in CC#N): 581 nm
- emission maximum (in CC(C)=O): 587 nm
- emission maximum (in CCOC(C)=O): 573 nm
- emission maximum (in CN(C)C=O): 558 nm
- emission maximum (in CO): 562 nm
- emission maximum (in Cc1ccccc1): 525 nm
- emission maximum (in ClC(Cl)Cl): 567 nm
- emission maximum (in ClCCl): 590 nm

SMILES: Cc1ccc(N(CC(=O)[O-])CC(=O)[O-])c(OCCOc2cc3cc(-c4ncc(C(=O)[O-])o4)oc3cc2N(CC(=O)[O-])CC(=O)[O-])c1
- emission maximum (in O): 500 nm

SMILES: c1cc2ccc1-c1ccc(cc1)-c1ccc([se]1)-c1ccc(cc1)-c1ccc(cc1)-c1ccc([se]1)-c1ccc(cc1)-c1ccc(cc1)-c1ccc-2[se]1
- emission maximum (in C1CCOC1): 560 nm

SMILES: Cc1cc(C)c(B(c2c(C)cc(C)cc2C)c2ccc3ccc4cccc5ccc2c3c45)c(C)c1
- emission maximum (in Cc1ccccc1): 423 nm

SMILES: CCCCn1c2c(-c3ccc(N(c4ccccc4)c4ccccc4)cc3)cc(C#N)cc2c2cc(C#N)cc(-c3ccc(N(c4ccccc4)c4ccccc4)cc3)c21
- emission maximum (in C1CCCCC1): 404 nm
- emission maximum (in C1CCOC1): 449 nm
- emission maximum (in CC#N): 476 nm
- emission maximum (in CCCCOCCCC): 419 nm
- emission maximum (in CCN(CC)CC): 415 nm
- emission maximum (in CCOC(C)=O): 443 nm
- emission maximum (in CCOCC): 430 nm
- emission maximum (in CN(C)C=O): 476 nm
- emission maximum (in Cc1ccccc1): 415 nm
- emission maximum (in ClC=C(Cl)Cl): 424 nm
- emission maximum (in ClCCl): 452 nm

SMILES: Fc1ccc(N(c2ccc(F)cc2)c2ccc3c4cccc5c(N(c6ccc(F)cc6)c6ccc(F)cc6)ccc(c6cccc2c63)c54)cc1
- emission maximum (in C1CCCCC1): 529 nm
- emission maximum (in C1CCOC1): 544 nm
- emission maximum (in CC#N): 548 nm
- emission maximum (in Cc1ccccc1): 540 nm
- emission maximum (in ClCCl): 546 nm

SMILES: O=C1c2cccc3c(NCc4ccccn4)c4ccccc4c(c23)C(=O)N1Cc1ccccn1
- emission maximum (in C1CCOC1): 609 nm
- emission maximum (in CCCCCC): 594 nm
- emission maximum (in CCO): 615 nm
- emission maximum (in Cc1ccccc1): 606 nm
- emission maximum (in ClCCl): 611 nm

SMILES: CCCCn1c(-c2ccc(-c3nnc(-c4ccc5ccccc5c4)o3)cc2)nc2c3ccccc3c3ccccc3c21
- emission maximum (in ClCCl): 448 nm

SMILES: CN(C)c1ccc(N2c3sc4ccccc4c3Sc3c2sc2ccccc32)cc1
- emission maximum (in ClCCl): 556 nm

SMILES: COc1cc(OC)c2c(c1)c1cc3oc(=O)cc(C)c3cc1c1cc(OC)cc(OC)c12
- emission maximum (in ClC(Cl)Cl): 538 nm

SMILES: CC(C)c1cccc(C(C)C)c1-n1c(=O)c2cc3nc(-c4ccccc4)c4cc5c(=O)n(-c6c(C(C)C)cccc6C(C)C)c(=O)c6cc7nc(-c8ccccc8)c8cc(c1=O)c2c1c3c4c(c65)c7c81
- emission maximum (in ClC(Cl)Cl): 502 nm

SMILES: CN(C)c1ccc2c(C(=O)NCc3ccccc3)cc(C(=O)[O-])nc2c1
- emission maximum (in CCO): 603 nm

Continued, values first:

- emission maximum (in ClCCl): 655 nm
SMILES: CCCCC1C(=O)c2cc(Oc3ccc(C(C)(C)C)cc3)c3c4c(Oc5ccc(C(C)(C)C)cc5)cc5c6c(cc(Oc7ccc(C(C)(C)C)cc7)c(c7c(Oc8ccc(C(C)(C)C)cc8)cc(c2c37)C1=O)c64)C1=C(C5=O)c2ccc3ccccc3[n+]2[B-](F)(F)O1 (centres undefined)

- emission maximum (in C1CCOC1): 490 nm
SMILES: [O-]c1ccccc1/C=N/c1ccccc1/N=C/c1ccccc1[O-]

- emission maximum (in ClC(Cl)Cl): 663 nm
SMILES: CCCCCCCCN1C(=O)c2ccc3c4c(-c5ccc6c(c5)c5ccccc5n6-c5ccccc5)cc5c6c(cc(-c7ccc8c(c7)c7ccccc7n8-c7ccccc7)c(c7ccc(c2c37)C1=O)c64)C(=O)N(CCCCCCCC)C5=O

- emission maximum (in CS(C)=O): 441 nm
SMILES: Cc1ccc(C2C3=C(CCCC3=O)Nc3c2c(=O)oc2ccccc32)cc1 (centres undefined)

- emission maximum (in ClC(Cl)Cl): 689 nm
SMILES: CCCCCCCCN1C(=O)c2ccc3c4c(-c5ccc6c(c5)c5ccccc5n6-c5ccccc5)cc5c6c(ccc(c7c(-c8ccc9c(c8)c8ccccc8n9-c8ccccc8)cc(c2c37)C1=O)c64)C(=O)N(CCCCCCCC)C5=O

- emission maximum (in ClCCl): 466 nm
SMILES: CCCCCCCCCCOc1ccc(C#Cc2cc3c(C#Cc4ccc(OCCCCCCCCCC)cc4)c(C#Cc4ccc(OCCCCCCCCCC)cc4)c4cc(C#Cc5ccc(OCCCCCCCCCC)cc5)cc5c(C#Cc6ccc(OCCCCCCCCCC)cc6)c(C#Cc6ccc(OCCCCCCCCCC)cc6)c(c2)c3c45)cc1

- emission maximum (in C1CCOC1): 409 nm
- emission maximum (in CC#N): 407 nm
- emission maximum (in CCOC(C)=O): 410 nm
- emission maximum (in CS(C)=O): 406 nm
- emission maximum (in ClC(Cl)Cl): 411 nm
SMILES: N#Cc1cc2ccccc2oc1=N

- emission maximum (in ClC(Cl)Cl): 491 nm
SMILES: CC(C)(C)c1ccc2oc3nc4oc5ccc(N6c7ccccc7Oc7ccccc76)cc5c4cc3c2c1

- emission maximum (in ClCCl): 596 nm
SMILES: COCCOCCOCCOCC(COCCOCCOCCOC)Oc1cc(/C=C/c2ccc(C=C(C#N)C#N)cc2)c(OC(COCCOCCOCCOC)COCCOCCOCCOC)cc1/C=C/c1ccc(C=C(C#N)C#N)cc1

- emission maximum (in ClCCl): 741 nm
SMILES: CC(C)(C)c1cc(-c2c3cc(c(-c4cc(C(C)(C)C)cc(C(C)(C)C)c4)c4ccc([nH]4)c(-c4ccc([N+](=O)[O-])cc4)c4nc(c(-c5ccc([N+](=O)[O-])cc5)c5ccc2[nH]5)C=C4)N=C3)cc(C(C)(C)C)c1

- emission maximum (in CCO): 533 nm
- emission maximum (in ClCCl): 507 nm
SMILES: CCN(CC)c1ccc2cc(C#N)/c(=N\C(=O)c3ccc(F)cc3)oc2c1

- emission maximum (in O): 397 nm
SMILES: CCn1c(-c2ccc(-c3ccc(-c4ccc(-c5n(CC)c6cc(C)ccc6[n+]5CC)cc4)cc3)cc2)[n+](CC)c2ccc(C)cc21

- emission maximum (in CO): 688 nm
- emission maximum (in ClC(Cl)Cl): 714 nm
SMILES: CCN1C(=CC2=C([O-])C(=Cc3[se]c4ccccc4[n+]3CC)C2=O)[Se]c2ccccc21

- emission maximum (in C1CCOC1): 424 nm
- emission maximum (in CCCCCC): 414 nm
- emission maximum (in CCO): 429 nm
- emission maximum (in CS(C)=O): 431 nm
SMILES: COc1ccc2cc(-c3ccc(C)cc3)c(=O)oc2c1

- emission maximum (in O): 526 nm
SMILES: CC1(C)C(=O)C=Cc2ccc(N)cc21

- emission maximum (in ClCCl): 517 nm
SMILES: CCCCCCN1C(=O)c2cccc3c(-c4ccc(-c5cc(-c6ccc(Cl)cc6)n(-c6ccccc6)n5)s4)ccc(c23)C1=O

- emission maximum (in C1CCCCC1): 380 nm
- emission maximum (in CO): 385 nm
SMILES: Cc1ccc(/C=C(\c2ccccc2)c2nc3ccccc3o2)cc1
